Measured values: US9409905B2, “Antibacterial compounds and methods for use” (PTC THERAPEUTICS, INC., priority 2011, dated 2016)
Converted amounts (≈) assume the structure as drawn.

Legend:
[1] = system: Escherichia coli (E. coli) BAS849; assay: Antibacterial activity, microbroth dilution MIC (Table 1); assay type: cell-based; conditions: microbroth dilution, super sensitive Gram-negative E. coli BAS849, read-out: MIC, BAS849
Summary of the method: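 MIC (μg/mL) is taken as the lowest concentration with no macroscopically visible growth. Strains tested by microbroth dilution: Gram-positive S. aureus 29213, control Gram-negative E. coli 25922, and super-sensitive E. coli BAS849.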

[2] = system: Staphylococcus aureus (S. aureus) 29213; assay: as above; assay type: cell-based; conditions: microbroth dilution, Gram-positive S. aureus 29213, read-out: MIC, 29213
Summary of the method: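 In a microbroth dilution test, the minimum inhibitory concentration was defined as the lowest compound level preventing growth seen by eye, and was given in μg/mL.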

E. coli 25922 = assay: as above; assay type: cell-based, Escherichia coli; conditions: Escherichia coli; microbroth dilution; control Gram-negative E. coli 25922 strain; read-out: MIC, 25922
Summary of the method: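 Potency is reported as minimum inhibitory concentration in μg/mL, determined by broth microdilution as the lowest level of compound that stops growth visible to the eye.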

E. coli LZ3111 = assay: Antibacterial activity, MIC, quinolone resistant strain (Table 2); assay type: cell-based; conditions: Escherichia coli, LZ3111, read-out: MIC LZ3111
Summary of the method: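 Broth microdilution. Read-out: MIC in μg/mL, taken as lowest concentration with no macroscopically visible growth.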

E. coli ELZ4000 = assay: Antibacterial activity, MIC, multi-drug resistant clinical isolate (Table 3); assay type: cell-based; conditions: Escherichia coli, ELZ4000, read-out: MIC ELZ4000
Summary of the method: (§1)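 MIC (μg/mL) read as lowest concentration with no macroscopically visible growth, determined by microbroth dilution.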

E. coli ELZ4251 = assay: as above; assay type: cell-based; conditions: Escherichia coli
Summary of the method: as §1

[3] = system: Haemophilus influenzae (H. influenzae) 49247; assay: Antibacterial activity, MIC (Table 6); assay type: cell-based
Source text: (§2) The antibacterial activity from a microbroth dilution method may be presented as the minimum inhibitory concentration (MIC in μg/mL). The MIC value is the lowest concentration of drug which prevents macroscopically visible growth under test conditions.
(§3) Antibacterial activity of test compounds against the Gram-negative bacteria Haemophilus influenzae (H. influenzae) 49247 is shown in Table 6, Moraxella catarrhalis (M. catarrhalis) 25238 is shown in Table 7 and Neisseria meningitidis (N. meningitidis) 13090 is shown in Table 8.

[4] = system: Neisseria meningitidis (N. meningitidis) 13090; assay: Antibacterial activity, MIC (Table 8); assay type: cell-based
Source text: as §2, §3

[5] = system: Acinetobacter baumannii (A. baumannii) BAA747; assay: Antibacterial activity, MIC (Table 4); assay type: cell-based; conditions: A. baumannii BAA747, read-out: MIC, BAA747
Summary of the method: (§4)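 Values are minimum inhibitory concentrations in μg/mL from broth microdilution, meaning no macroscopically visible growth at that concentration. Resistant MXX isolates are multi-drug resistant clinical strains.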

A. baumannii MXX2240 = assay: Antibacterial activity, MIC, resistant strain (Table 4); assay type: cell-based; conditions: Acinetobacter baumannii, MXX2240; resistant A. baumannii MMX2240, multi-drug resistant clinical isolate; read-out: MIC, MMX2240
Summary of the method: as §4

K. pneumoniae MXX1232 = assay: as above; assay type: cell-based; conditions: Klebsiella pneumoniae, MXX1232; resistant K. pneumoniae MMX1232, multi-drug resistant clinical isolate; read-out: MIC, MMX1232
Summary of the method: as §4

[6] = system: Pseudomonas aeruginosa (P. aeruginosa) 27853; assay: Antibacterial activity, MIC (Table 5); assay type: cell-based; conditions: P. aeruginosa 27853, read-out: MIC, 27853
Summary of the method: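 Microbroth dilution; MIC (μg/mL) = lowest concentration with no macroscopically visible growth.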

[7] = system: Klebsiella pneumoniae (K. pneumoniae) 35657; assay: Antibacterial activity, MIC (Table 4); assay type: cell-based; conditions: K. pneumoniae 35657, read-out: MIC, 35657
Summary of the method: as §4

[8] = system: Moraxella catarrhalis (M. catarrhalis) 25238; assay: Antibacterial activity, MIC (Table 7); assay type: cell-based
Source text: as §2, §3

| SMILES | MIC [1] | MIC [2] | MIC (E. coli 25922) | MIC (E. coli LZ3111) | MIC (E. coli ELZ4000) | MIC (E. coli ELZ4251) | MIC [3] | MIC [4] | MIC [5] | MIC (A. baumannii MXX2240) | MIC (K. pneumoniae MXX1232) | MIC [6] | MIC [7] | MIC [8] |
| --- | --- | --- | --- | --- | --- | --- | --- | --- | --- | --- | --- | --- | --- | --- |
| CC(C)c1cc(C(=O)O)c(=O)[nH]c1-c1ccc2c(ccn2C)c1 [Cpd 33, 5-isopropyl-6-(1-methyl-1H-indol-5-yl)-2-oxo-1,2-dihydropyridine-3-carboxylic acid] | < 1 µg/mL | 12.5 to 150 µg/mL (≈ 40.3 to 483 µM) | 3.5 to 12.5 µg/mL (≈ 11.3 to 40.3 µM) | 12.5 to 150 µg/mL (≈ 40.3 to 483 µM) | 12.5 to 150 µg/mL (≈ 40.3 to 483 µM) | 12.5 to 150 µg/mL (≈ 40.3 to 483 µM) | < 1 µg/mL | < 1 µg/mL |  |  |  |  |  |  |
| Cn1ccc2cc(-c3[nH]c(=O)c(C(=O)O)cc3C3CC3)ccc21 [Cpd 35, 5-cyclopropyl-6-(1-methyl-1H-indol-5-yl)-2-oxo-1,2-dihydropyridine-3-carboxylic acid] | < 1 µg/mL | 12.5 to 150 µg/mL (≈ 40.5 to 486 µM) | 1 to 3.5 µg/mL (≈ 3.24 to 11.4 µM) | 12.5 to 150 µg/mL (≈ 40.5 to 486 µM) | 12.5 to 150 µg/mL (≈ 40.5 to 486 µM) | 12.5 to 150 µg/mL (≈ 40.5 to 486 µM) | < 1 µg/mL | < 1 µg/mL |  |  |  |  |  |  |
| CCc1cc(C(=O)O)c(=O)[nH]c1-c1ccc2c(c1)cc(C)n2C [Cpd 37, 6-(1,2-dimethyl-1H-indol-5-yl)-5-ethyl-2-oxo-1,2-dihydropyridine-3-carboxylic acid] | < 1 µg/mL | 1 to 3.5 µg/mL (≈ 3.22 to 11.3 µM) | < 1 µg/mL | 12.5 to 150 µg/mL (≈ 40.3 to 483 µM) | 12.5 to 150 µg/mL (≈ 40.3 to 483 µM) | 12.5 to 150 µg/mL (≈ 40.3 to 483 µM) | < 1 µg/mL | < 1 µg/mL |  |  |  |  |  |  |
| CCc1c(-c2ccc3c(c2)cc(C)n3C)[nH]c(=O)c(C(=O)O)c1O [Cpd 38, 6-(1,2-dimethyl-1H-indol-5-yl)-5-ethyl-4-hydroxy-2-oxo-1,2-dihydropyridine-3-carboxylic acid] | < 1 µg/mL | 1 to 3.5 µg/mL (≈ 3.06 to 10.7 µM) | 1 to 3.5 µg/mL (≈ 3.06 to 10.7 µM) | 12.5 to 150 µg/mL (≈ 38.3 to 460 µM) | 12.5 to 150 µg/mL (≈ 38.3 to 460 µM) | 12.5 to 150 µg/mL (≈ 38.3 to 460 µM) | < 1 µg/mL | < 1 µg/mL |  |  |  |  |  |  |
| CCc1cc(C(=O)O)c(=O)[nH]c1-c1ccc2c(c1)cc(CO)n2C [Cpd 39, 5-ethyl-6-(2-(hydroxymethyl)-1-methyl-1H-indol-5-yl)-2-oxo-1,2-dihydropyridine-3-carboxylic acid] | < 1 µg/mL | 3.5 to 12.5 µg/mL (≈ 10.7 to 38.3 µM) | 1 to 3.5 µg/mL (≈ 3.06 to 10.7 µM) | 12.5 to 150 µg/mL (≈ 38.3 to 460 µM) | 12.5 to 150 µg/mL (≈ 38.3 to 460 µM) | 12.5 to 150 µg/mL (≈ 38.3 to 460 µM) | < 1 µg/mL | < 1 µg/mL |  |  |  |  |  |  |
| CCc1c(-c2ccc3c(c2)cc(CO)n3C)[nH]c(=O)c(C(=O)O)c1O [Cpd 40, 5-ethyl-4-hydroxy-6-(2-(hydroxymethyl)-1-methyl-1H-indol-5-yl)-2-oxo-1,2-dihydropyridine-3-carboxylic acid] | < 1 µg/mL | 1 to 3.5 µg/mL (≈ 2.92 to 10.2 µM) | 1 to 3.5 µg/mL (≈ 2.92 to 10.2 µM) | 3.5 to 12.5 µg/mL (≈ 10.2 to 36.5 µM) | 12.5 to 150 µg/mL (≈ 36.5 to 438 µM) | 3.5 to 12.5 µg/mL (≈ 10.2 to 36.5 µM) | < 1 µg/mL | < 1 µg/mL | 1 to 3.5 µg/mL (≈ 2.92 to 10.2 µM) | 3.5 to 12.5 µg/mL (≈ 10.2 to 36.5 µM) | 12.5 to 150 µg/mL (≈ 36.5 to 438 µM) | 3.5 to 12.5 µg/mL (≈ 10.2 to 36.5 µM) |  |  |
| CCc1cc(C(=O)O)c(=O)[nH]c1-c1ccc2c(cnn2C)c1 [Cpd 41, 5-ethyl-6-(1-methyl-1H-indazol-5-yl)-2-oxo-1,2-dihydropyridine-3-carboxylic acid] | < 1 µg/mL | 12.5 to 150 µg/mL (≈ 42 to 505 µM) | 3.5 to 12.5 µg/mL (≈ 11.8 to 42 µM) | 12.5 to 150 µg/mL (≈ 42 to 505 µM) | 12.5 to 150 µg/mL (≈ 42 to 505 µM) | 12.5 to 150 µg/mL (≈ 42 to 505 µM) | < 1 µg/mL | < 1 µg/mL | 12.5 to 150 µg/mL (≈ 42 to 505 µM) | 12.5 to 150 µg/mL (≈ 42 to 505 µM) | 12.5 to 150 µg/mL (≈ 42 to 505 µM) | 12.5 to 150 µg/mL (≈ 42 to 505 µM) | 12.5 to 150 µg/mL (≈ 42 to 505 µM) |  |
| C=CCNCc1cc2cc(-c3[nH]c(=O)c(C(=O)O)c(O)c3CC)ccc2n1C.Cl [Cpd 243, 6-(2-((allylamino)methyl)-1-methyl-1H-indol-5-yl)-5-ethyl-4-hydroxy-2-oxo-1,2-dihydropyridine-3-carboxylic acid hydrochloride] | < 1 µg/mL | 3.5 to 12.5 µg/mL | < 1 µg/mL | 1 to 3.5 µg/mL | 3.5 to 12.5 µg/mL | 1 to 3.5 µg/mL | < 1 µg/mL | < 1 µg/mL | < 1 µg/mL |  | 12.5 to 150 µg/mL | 3.5 to 12.5 µg/mL | < 1 µg/mL | < 1 µg/mL |
